From PubChem BioAssay (NCI)
Values joined by “and” are separate entries in the source; they are usually repeats but may differ in a detail not shown here. Equal entries are not always repeated.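 A five-concentration, 48-hour dose response in 96-well plates underlies each endpoint, interpolated linearly between surrounding concentrations. The concentration for 50% growth inhibition is given as GI50. At the TGI there is no net growth.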

Columns and labels:
Test in all cases: inhibition of tumour cell growth, NCI panel, 48 h
[1] = tested on: HCC-2998 colon
[2] = tested on: HOP-62 NSCLC
[3] = tested on: HS 578T breast
[4] = tested on: MOLT-4 leukemia
[5] = tested on: NCI-H23 lung
[6] = tested on: RXF 393 renal
[7] = tested on: SK-MEL-28 melanoma
[8] = tested on: SK-OV-3 ovarian
[9] = tested on: SNB-19 CNS
[10] = tested on: T-47D breast

| Compound | GI50 [1] | TGI [1] | GI50 [2] | TGI [2] | GI50 [3] | TGI [3] | GI50 [4] | TGI [4] | GI50 [5] | TGI [5] | GI50 [6] | TGI [6] | GI50 [7] | TGI [7] | GI50 [8] | TGI [8] | GI50 [9] | TGI [9] | GI50 [10] | TGI [10] |
| --- | --- | --- | --- | --- | --- | --- | --- | --- | --- | --- | --- | --- | --- | --- | --- | --- | --- | --- | --- | --- |
| C=C1CC[C@@H]2[C@](C)(COC(C)=O)[C@H](OC(C)=O)CC[C@@]2(C)[C@@H]1CC(Nc1ccc(S(=O)(=O)Nc2ncccn2)cc1)C1=CCOC1=O (some centres undefined) | 2.1 µM | 3.81 µM | 3.02 µM | 6.44 µM | 3.54 µM | 24.4 µM | 2.27 µM | 8.37 µM | 2.11 µM | 5.38 µM | 1.95 µM | 3.58 µM | 1.69 µM | 3.24 µM | 6.27 µM | 18.3 µM | 1.63 µM | 3.76 µM | 2 µM | 5.46 µM |
| CC(C)CCCC(=O)CCCCCCC(=O)CCN(O)C(=O)C(N)CO (centres undefined) |  |  |  | 40.8 µM |  | 68.8 µM |  | > 100 µM |  | 32.1 µM |  | 27.4 µM |  | 41.5 µM |  | 35.6 µM |  | 48.6 µM |  | 34.8 µM |
| Nc1nc(-c2cccc(Cl)c2)c(-c2ccc3ncccc3n2)s1 | > 25 µM | > 25 µM | > 25 µM | > 25 µM | > 25 µM | > 25 µM | > 25 µM | > 25 µM | > 25 µM | > 25 µM | > 25 µM | > 25 µM | > 25 µM | > 25 µM | > 25 µM | > 25 µM | > 25 µM | > 25 µM | 5.88 µM | > 25 µM |
| COc1ccc(C2SCC(=O)N2NC(=O)Nc2c(C)nc3ccccn23)cc1 (centres undefined) | > 100 µM | > 100 µM | 16.4 µM | 31.1 µM | 41.3 µM | > 100 µM | > 100 µM | > 100 µM |  |  | 26.4 µM | 69.3 µM | > 100 µM | > 100 µM | 24.5 µM | 47.6 µM | 21.7 µM | 47.3 µM | 26.4 µM | 74.9 µM |
| COc1ccc(-c2nnc(COc3ccc(NC(=O)Nc4ccc(Cl)c(C(F)(F)F)c4)cc3F)o2)cc1 | 4.86 µM | 53.1 µM | 5.07 µM | 21.8 µM | 3.26 µM | 18.1 µM | 2.39 µM | 11.6 µM | 3.12 µM | 14.6 µM |  |  | 5.27 µM | 54.6 µM | 5.86 µM | 31.5 µM | 4.02 µM | 24.2 µM | 3.02 µM | 14.5 µM |
| O=C(/C(=C/c1cccc([N+](=O)[O-])c1)c1ccccc1)c1ccccc1 | 2.54 µM | 6.27 µM | 2.87 µM | 7.56 µM | 3.89 µM | > 100 µM | 3.13 µM | 11.6 µM | 2.92 µM | 17 µM | 3.39 µM | 9.06 µM | 2.84 µM | 8.97 µM | 3.69 µM | 10.2 µM | 5.15 µM | 19.7 µM | 3.42 µM | 15.5 µM |
| CCc1oc2ccccc2c1C(=O)c1cc(I)c(O)c(I)c1 | 4.84 µM | 17.5 µM | 5.85 µM | 20.3 µM | 2.22 µM | 7.41 µM | 3.33 µM | 26.6 µM | 3.91 µM | 17.4 µM | 2.98 µM | 16 µM | 8.45 µM | 21.6 µM | 5.46 µM | 18.4 µM | 5.19 µM | 18.9 µM | 4.56 µM | 20.8 µM |
| CCCCN1CSC(=S)N(Cc2ccccc2)C1 |  |  |  | > 100 µM |  | > 100 µM |  | 78.2 µM |  | > 100 µM |  | > 100 µM |  | > 100 µM |  | > 100 µM |  | > 100 µM |  | > 100 µM |
| Cn1cnc([N+](=O)[O-])c1[Se]c1nc(N)nc2c1ncn2C1OC(CO)C(O)C1O (centres undefined) |  | > 100 µM |  | > 100 µM |  | > 100 µM |  | > 100 µM |  | > 100 µM |  | > 100 µM |  | > 100 µM |  | > 100 µM |  | > 100 µM |  | > 100 µM |
| O=C1/C(=C/c2ccc(O)cc2)CSc2ccc(Cl)cc21 | 13.6 µM | 30.1 µM | 14.2 µM | 45 µM | 2.9 µM | 7.36 µM | 4.09 µM | > 100 µM | 19.3 µM | 46 µM | 17.9 µM | 37.7 µM | 4.04 µM | 15.8 µM | 23 µM | 44.6 µM | 14.1 µM | 27.4 µM | 8.86 µM | 22.7 µM |
| Cc1nc(-c2ccccc2)c(-c2ccccc2)s1 |  | 25.3 µM |  | > 100 µM |  | 47.2 µM |  | 38.8 µM |  | 97.7 µM |  | 49.8 µM |  | > 100 µM |  | > 100 µM |  | > 100 µM |  | > 100 µM |
| COc1cc2c(c(OC)c1OC)-c1c(cc3c(c1OC)OCO3)C1OC2C(C)C1C (centres undefined) (tested in a mixture with another compound) |  | > 100 µM |  | > 100 µM |  | > 100 µM |  | 70.4 µM |  | > 100 µM |  | > 100 µM |  | > 100 µM |  | > 100 µM |  | > 100 µM |  | 80.2 µM |
| CSc1nc2cc(S(=O)(=O)N3CCCCC3)ccc2s1 |  |  |  | > 100 µM |  | > 100 µM |  | > 100 µM |  | > 100 µM |  | > 100 µM |  | > 100 µM |  | > 100 µM |  | > 100 µM |  | > 100 µM |
| C=C[C@H]1C[C@@H]2C[C@@H]3[C@H]4C/C=C\C(=O)NCCCC5NC(=O)C(=C(O)/C=C/[C@@H]4CC(=O)[C@H]3[C@@H]2[C@H]1C)C5=O (some centres undefined) | 1.41 µM | 2.78 µM | 0.165 µM | 0.31 µM | 0.191 µM | 0.423 µM |  |  | 0.627 µM | 1.47 µM | 0.165 µM | 0.308 µM | 0.203 µM | 0.399 µM | 0.242 µM | 0.606 µM | 0.286 µM | 1 µM | 1.65 µM | 3.52 µM |
| NCCCn1c2c(c3ccc([N+](=O)[O-])cc3c1=O)C(=O)c1cc(Br)ccc1-2 | 0.154 µM |  | 0.034 µM and 0.0329 µM | 0.171 µM and 0.388 µM | 0.105 µM |  |  |  | 0.0289 µM and 0.0213 µM | 0.118 µM and 0.151 µM | 0.318 µM |  | 0.0715 µM |  | 0.348 µM | 2.03 µM | 0.0379 µM |  | 0.346 µM and 0.169 µM | 1.49 µM |
